Results as given in patent US10765676B2, “Trk-inhibiting compound” (ONO PHARMACEUTICAL CO., LTD., priority 2013, dated 2020).

Test system: sodium monoiodoacetate-induced model rats
Assay: Analgesic effect on sodium monoiodoacetate-induced model rats
Assay type: in vivo, rat
Conditions: MIA-induced model rats, day 24
[1] = right hind limb weight load ratio, test substance orally twice a day from day 14, experiment with tramadol as positive control (Table 7)
[2] = right hind limb weight load ratio, test substance orally twice a day from day 14, experiment with morphine as positive control (Table 8)

| SMILES | Percent improvement (%) [1] | Percent improvement (%) [2] | also measured |
| --- | --- | --- | --- |
| Nc1ncc(Cl)cc1-c1ccc(Oc2ncc(NC(=O)Nc3cc(C(F)(F)F)ccc3-n3cccn3)cn2)cc1 [Example 7, 1-(2-(1H-pyrazol-1-yl)-5-(trifluoromethyl)phenyl)-3-(2-(4-(2-amino-5-chloropyridin-3-yl)phenoxy)pyrimidin-5-yl) urea] | 61% | – | – |
| Cc1cn(-c2ccc(C(F)(F)F)cc2NC(=O)Nc2cnc(Oc3ccc(-c4cc(Cl)cnc4N)cc3)nc2)nn1 [Example 8-1, 1-(2-(4-(2-amino-5-chloropyridin-3-yl)phenoxy)pyrimidin-5-yl)-3-(2-(4-methyl-1H-1,2,3-triazol-1-yl)-5-(trifluoromethyl)phenyl)urea] | 60% | – | – |
| Nc1ncc(F)cc1-c1ccc(Oc2ncc(NC(=O)Nc3cc(C(F)(F)F)ccc3-n3ccnn3)cn2)cc1 [Example 14-5, 1-(2-(1H-1,2,3-triazol-1-yl)-5-(trifluoromethyl)phenyl)-3-(2-(4-(2-amino-5-fluoropyridin-3-yl)phenoxy)pyrimidin-5-yl)urea] | 47% | – | – |
| Nc1ncc(F)cc1-c1ccc(Oc2ncc(NC(=O)Nc3cc(C(F)(F)F)ccc3-c3cccnc3)cn2)cc1 [Example 14-6, 1-(2-(4-(2-amino-5-fluoropyridin-3-yl)phenoxy)pyrimidin-5-yl)-3-(2-(pyridin-3-yl)-5-(trifluoromethyl)phenyl)urea] | – | 53% | – |
| Nc1ncc(Cl)cc1-c1ccc(Oc2ncc(NC(=O)Nc3ccc(C(F)(F)F)cc3Cl)cn2)cc1 [Example 15-6, 1-(2-(4-(2-amino-5-chloropyridin-3-yl)phenoxy)pyrimidin-5-yl)-3-(2-chloro-4-(trifluoromethyl)phenyl)urea] | 51% | – | – |
| Nc1ncc(C(F)(F)F)cc1-c1ccc(Oc2ncc(NC(=O)Nc3cc(C(F)(F)F)ccc3-n3ccc(C(F)(F)F)n3)cn2)cc1 [Example 15-52, 1-(2-{4-[2-amino-5-(trifluoromethyl)-3-pyridinyl]phenoxy}-5-pyrimidinyl)-3-{5-(trifluoromethyl)-2-[3-(trifluoromethyl)-1H-pyrazol-1-yl]phenyl}urea] | – | 60% | – |
| Nc1ncc(Cl)cc1-c1ccc(Oc2ncc(NC(=O)Nc3cc(C(F)(F)F)ccc3-c3ccccc3)cn2)cc1 [Example 15-55, 1-{2-[4-(2-amino-5-chloro-3-pyridinyl)phenoxy]-5-pyrimidinyl}-3-[4-(trifluoromethyl)-2-biphenylyl]urea] | – | 62% | – |
| Nc1ncc(Cl)cc1-c1ccc(Oc2ncc(NC(=O)Nc3cc(C(F)(F)F)ccc3-n3cc(Cl)cn3)cn2)cc1 [Example 15-63, 1-{2-[4-(2-amino-5-chloro-3-pyridinyl)phenoxy]-5-pyrimidinyl}-3-[2-(4-chloro-1H-pyrazol-1-yl)-5-(trifluoromethyl)phenyl]urea] | – | 53% | – |
| Nc1ncc(Cl)cc1-c1ccc(Oc2ncc(NC(=O)Nc3ccc(C(F)(F)F)cc3C(F)(F)F)cn2)cc1 [Example 15-77, 1-{2-[4-(2-amino-5-chloro-3-pyridinyl)phenoxy]-5-pyrimidinyl}-3-[2,4-bis(trifluoromethyl)phenyl]urea] | – | 55% | – |
| Nc1ncc(C(F)(F)F)cc1-c1ccc(Oc2ncc(NC(=O)Nc3cc(C(F)(F)F)ccc3-n3cc(Cl)cn3)cn2)cc1 [Example 15-87, 1-(2-{4-[2-amino-5-(trifluoromethyl)-3-pyridinyl]phenoxy}-5-pyrimidinyl)-3-[2-(4-chloro-1H-pyrazol-1-yl)-5-(trifluoromethyl)phenyl]urea] | – | 57% | – |
| CS(=O)(=O)c1ccc(C(F)(F)F)cc1NC(=O)Nc1cnc(Oc2ccc(-c3cc(C(F)(F)F)cnc3N)cc2)nc1 [Example 15-98, 1-(2-{4-[2-amino-5-(trifluoromethyl)-3-pyridinyl]phenoxy}-5-pyrimidinyl)-3-[2-(methylsulfonyl)-5-(trifluoromethyl)phenyl]urea] | – | 57% | – |
| CS(=O)(=O)c1ccc(C(F)(F)F)cc1NC(=O)Nc1cnc(Oc2ccc(-c3cc(Cl)cnc3N)cc2)nc1 [Example 15-104, 1-{2-[4-(2-amino-5-chloro-3-pyridinyl)phenoxy]-5-pyrimidinyl}-3-[2-(methylsulfonyl)-5-(trifluoromethyl)phenyl]urea] | – | 54% | – |
| COc1ccn2ncc(-c3ccc(Oc4ncc(NC(=O)Nc5cc(C(F)(F)F)ccc5-c5cccnc5)cn4)cc3)c2n1 [Example 21-9, 1-(2-(4-(5-methoxypyrazolo[1,5-a]pyrimidin-3-yl)phenoxy)pyrimidin-5-yl)-3-(2-(pyridin-3-yl)-5-(trifluoromethyl)phenyl)urea] | 64% | – | – |
| O=C(Nc1cnc(Oc2ccc(-c3cnn4cccnc34)cc2)nc1)Nc1cc(C(F)(F)F)ccc1-c1cccnc1 [Example 21-13, l-(2-(4-(pyrazolo[1,5-a]pyrimidin-3-yl)phenoxy)pyrimidin-5-yl)-3-(2-(pyridin-3-yl)-5-(trifluoromethyl)phenyl)urea] | 66% | – | – |
| CN(C)c1ccn2ncc(-c3ccc(Oc4ncc(NC(=O)Nc5cc(C(F)(F)F)ccc5-c5cccnc5)cn4)cc3)c2n1 [Example 21-37, 1-(2-{4-[5-(dimethylamino)pyrazolo[1,5-a]pyrimidin-3-yl]phenoxy}-5-pyrimidinyl)-3-[2-(3-pyridinyl)-5-(trifluoromethyl)phenyl]urea] | – | 67% | – |
| CN(C)c1ccn2ncc(-c3ccc(Oc4ncc(NC(=O)Nc5cc(C(F)(F)F)ccc5-c5ccnn5C)cn4)cc3)c2n1 [Example 21-51, 1-(2-{4-[5-(dimethylamino)pyrazolo[1,5-a]pyrimidin-3-yl]phenoxy}-5-pyrimidinyl)-3-[2-(1-methyl-1H-pyrazol-5-yl)-5-(trifluoromethyl)phenyl]urea] | – | 68% | – |
| CN(C)c1ccn2ncc(-c3ccc(Oc4ncc(NC(=O)Nc5cc(C(F)(F)F)ccc5-c5ccccc5)cn4)cc3)c2n1 [Example 21-70, 1-(2-{4-[5-(dimethylamino)pyrazolo[1,5-a]pyrimidin-3-yl]phenoxy}-5-pyrimidinyl)-3-[4-(trifluoromethyl)-2-biphenylyl]urea] | – | 61% | – |
| Cc1cccc(-c2ccc(C(F)(F)F)cc2NC(=O)Nc2cnc(Oc3ccc(-c4cnn5ccc(N(C)C)nc45)cc3)nc2)c1 [Example 21-73, 1-(2-{4-[5-(dimethylamino)pyrazolo[1,5-a]pyrimidin-3-yl]phenoxy}-5-pyrimidinyl)-3-[3′-methyl-4-(trifluoromethyl)-2-biphenylyl]urea] | – | 62% | – |
| CN1CC[C@]23c4c5ccc(O)c4O[C@H]2[C@@H](O)C=C[C@H]3[C@H]1C5 [Morphine, morphine, reference compound] | – | – | Percent improvement (%) (3 mg/kg subcutaneously 1 hour before the measurement, positive control drug): 54% |
| COc1cccc(C2(O)CCCCC2CN(C)C)c1 (centres unmarked) [Tramadol, tramadol, reference compound] | – | – | Percent improvement (%) (10 mg/kg subcutaneously 1 hour before the measurement, positive control drug): 43% |
